In US8399610B2, “HPV vaccine comprising peptides from host cell proteins” (University College Cardiff Consultants Limited, priority 2004, dated 2013):

Columns and labels:
T cell line KSI 10B7 = experiment: Mapping of epitope(s) recognised by T cell line KSI 10B7, IFN-γ ELISPOT with T2 cells as APC; assay type: cell-based, human; settings: individual peptides, triplicate
Protocol: T cells were tested by IFN-γ ELISPOT assays against either the whole BAX peptide mixture (1-23), or different sub-pools (1-9, 10-15, 16-23) or individual peptides (10, 11, 12, 13, 14 and 15). T2 cells (which only express HLA-A*0201) were used as APC. All combinations were tested in triplicate, with 600 spots being the maximum number that could be counted in these assays; and
Further immunomagnetic enrichment, flow sorting and expansion, led to the derivation of a T cell line (KSI 10B7), with 100% specificity for BAX peptides that bound to HLA-A*0201 (data not shown). This T cell line was tested by IFN-γ ELISPOT assays against either the whole BAX peptide mixture (1-23), or different sub-pools (1-9, 10-15, 16-23) or individual peptides (10, 11, 12, 13, 14 and 15). All combinations were tested in triplicate, with 600 spots being the maximum number that could be counted in these assays. KSI 10B7 T cells recognised two similar BAX peptides (10 and 13, FIG. 9). Both these peptides were predicted to bind to HLA-A*0201 (Table 4) and had similar amino acid sequences ([…] and […]). It is believed that the KSI 10B7 T cells recognised the […] sequence that is common to both peptides.

[1] = test system: IFN-γ producing T cells specific for the immunising peptide; experiment: In vivo immunogenicity in HLA-A*0201 transgenic mice, IFN-γ ELISPOT on splenocytes; design: species or system HLA-A2/Kb transgenic mice; settings: responding/immunised mice; 100 μg peptide in incomplete freunds adjuvant, splenocytes after ten to eleven days
[2] = test system: CD8+ T cells recognising Rb7 peptide; experiment: Detection of peptide specific CD8+ T cells in patient blood with fluoresceinated multimeric HLA-A2/peptide complexes; assay type: cell-based, human; settings: 4 patients tested (3 with cervical cancer, 1 CIN3); low frequency
Protocol: T cells reactive against peptides of the invention should be preferentially found in HLA-A2 patients with cervical cancer. Blood samples from 4 patients (3 with cervical cancer, 1 with premalignant disease, CIN3) were tested for the presence of CD8^+ T cells recognising Rb7 peptide. Fluoresceinated multimeric HLA-A2/peptide complexes were used to measure numbers of peptide specific T cells by flow cytometry (10). […] These frequencies were similar to those previously obtained for HPV16 E7 peptide specific T cells (10).

[3] = test system: CD8+ pentamer+ T lymphocytes; experiment: Peptide:HLA-A2 pentamer staining of CD8+ T cells from healthy HLA-A2+ donors after 14 days culture with peptide; assay type: cell-based, human
Protocol: On day 0 and day 14 days, the numbers of peptide specific CD8^+ T cells were measured using appropriate fluoresceinated peptide:HLA-A2 pentamers. These were analysed on a flow cytometer and expressed as % of gated cells, excluding dead and […] cells.

Row | Substance | Recognition by KSI 10B7 T cells (T cell line KSI 10B7) | Mice with significant T cell responses (IFN-γ ELISPOT) [1] | Patients in whose blood T cells specific for Rb7 peptide could be detected [2] | Frequency of peptide specific T lymphocytes, in words ([3]; 8 healthy donors (all HLA-A2+)) | Healthy donors in whom T lymphocytes recognising the peptide could be detected ([3]; 8 healthy donors (all HLA-A2+) tested) | Frequency of CD8+ pentamer+ cells ([3]; healthy donor 1, 14 days culture with peptide) | Frequency of CD8+ pentamer+ cells ([3]; healthy donor 2, 14 days culture with peptide) | Frequency of CD8+ pentamer+ cells ([3]; healthy donor 3, 14 days culture with peptide) | Frequency of CD8+ pentamer+ cells ([3]; healthy donor 4, 14 days culture with peptide) | Frequency of CD8+ pentamer+ cells ([3]; healthy donor 5, 14 days culture with peptide) | Frequency of CD8+ pentamer+ cells ([3]; healthy donor 6, 14 days culture with peptide) | Frequency of CD8+ pentamer+ cells ([3]; healthy donor 7, 14 days culture with peptide) | Frequency of CD8+ pentamer+ cells ([3]; healthy donor 8, 14 days culture with peptide)
1 | IMGWTLDFL [BAX peptide 13] | recognised | – | – | – | – | – | – | – | – | – | – | – | –
2 | Rb7: peptide from Rb485-493 (Rb7) protein, derived from human Rb protein (SLLACALEV) | – | 7/10 | 2 patients | variable but generally low frequencies | 8 healthy donors | 1/2500 | 1/1000 | 1/1000 | 1/909 | 1/120 | 1/3333 | 1/2000 | 1/2500
3 | TIMGWTLDFL [BAX peptide 10] | recognised | – | – | – | – | – | – | – | – | – | – | – | –
